Laboratory results published in PubChem BioAssay (NCI).
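Grown in 96-well plates, cells were treated for 48 hours with each compound at five concentrations. Insufficient inhibition: endpoint recorded as highest concentration tested. TGI marks complete inhibition of growth.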

Key:
Experiment in all cases: inhibition of tumour cell growth, NCI panel, 48 h
[1] = tested on: DLD-1 colon
[2] = tested on: DMS 114 small cell lung
[3] = tested on: DMS 273 small cell lung
[4] = tested on: HT29 colon
[5] = tested on: IGROV1 ovarian
[6] = tested on: KM20L2 colon
[7] = tested on: LXFL 529 NSCLC
[8] = tested on: M19-MEL melanoma
[9] = tested on: NCI-H522 lung
[10] = tested on: OVCAR-8 ovarian
[11] = tested on: SNB-19 CNS
[12] = tested on: SNB-78 CNS
[13] = tested on: XF 498 CNS
[14] = tested on: HOP-18 NSCLC
[15] = tested on: OVCAR-3 ovarian
[16] = tested on: RXF-631 renal
[17] = tested on: HS 578T breast
[18] = tested on: MDA-MB-231 breast

With `CC(C)C(/C=C/c1ccc(Br)cc1)=N\NC(N)=O` the TGI [1] was over 100 µM, the TGI [2] was over 100 µM and the TGI [3] was over 100 µM. It also gave a TGI [4] of over 100 µM, a TGI [5] of over 100 µM and a TGI [6] of over 100 µM. The TGI [7] was over 100 µM, the TGI [8] was 25.4 µM and the TGI [9] was over 100 µM. The TGI [10] was over 100 µM, the TGI [11] was over 100 µM and the TGI [12] was over 100 µM. It also gave a TGI [13] of over 100 µM.
`COC(=O)C(Cc1nc2ccc(Cl)cc2[nH]c1=O)/C(=N/NC(N)=O)C(=O)Nc1ccc(Cl)cc1` (centres undefined) gave a TGI [2] of over 100 µM, a TGI [3] of over 100 µM and a TGI [14] of over 100 µM. It also gave a TGI [4] of over 100 µM, a TGI [5] of over 100 µM and a TGI [6] of over 100 µM. For the same compound, the TGI [7] was over 100 µM, the TGI [8] was over 100 µM and the TGI [9] was over 100 µM. For the same compound, the TGI [15] was over 100 µM, the TGI [10] was over 100 µM and the TGI [16] was over 100 µM. The TGI [11] was over 100 µM, the TGI [12] was over 100 µM and the TGI [13] was over 100 µM.
With `CCS(=O)(=O)CCn1cnc2c1c(=O)n(C)c(=O)n2C` the TGI [17] was over 100 µM, the TGI [4] was over 100 µM and the TGI [5] was over 100 µM. The TGI [18] was over 100 µM, the TGI [9] was over 100 µM and the TGI [15] was over 100 µM. The TGI [10] was over 100 µM and the TGI [11] was over 100 µM.
With `O=C(NO)C(=O)Nc1ccc(Cl)cc1[N+](=O)[O-]` the TGI [1] was over 100 µM, the TGI [2] was over 100 µM and the TGI [3] was over 100 µM. It also gave a TGI [14] of over 100 µM, a TGI [4] of over 100 µM and a TGI [5] of over 100 µM. It also gave a TGI [6] of over 100 µM, a TGI [7] of over 100 µM and a TGI [8] of over 100 µM. The TGI [9] was over 100 µM, the TGI [15] was over 100 µM and the TGI [10] was over 100 µM. For the same compound, the TGI [16] was over 100 µM, the TGI [11] was over 100 µM and the TGI [12] was over 100 µM.
`CCOC(=O)c1ccc(-n2c(SCC)nc3sc(C)c(C)c3c2=O)cc1` gave a TGI [1] of over 100 µM, a TGI [2] of over 100 µM and a TGI [3] of over 100 µM. It also gave a TGI [14] of over 100 µM, a TGI [4] of over 100 µM and a TGI [5] of over 100 µM. The TGI [6] was over 100 µM, the TGI [9] was over 100 µM and the TGI [15] was over 100 µM. It also gave a TGI [10] of over 100 µM, a TGI [11] of over 100 µM and a TGI [12] of over 100 µM. For the same compound, the TGI [13] was over 100 µM.
With `NCCN1CC2CCC(CC2)C1` the TGI [17] was over 10 µM, the TGI [4] was over 10 µM and the TGI [5] was over 10 µM. It also gave a TGI [18] of over 10 µM, a TGI [9] of over 10 µM and a TGI [15] of over 10 µM. It also gave a TGI [10] of over 10 µM and a TGI [11] of over 10 µM.
In the case of `Cc1ccc(S(=O)(=O)NC(=O)Nc2ccc(S(N)(=O)=O)cc2S(N)(=O)=O)cc1`, the TGI [17] is reported as over 100 µM, the TGI [4] is reported as over 100 µM and the TGI [5] is reported as over 100 µM. For the same compound, the TGI [18] was over 100 µM, the TGI [9] was over 100 µM and the TGI [15] was over 100 µM. For the same compound, the TGI [10] was over 100 µM and the TGI [11] was over 100 µM.
Compound `COc1c(O)c2c(=O)cc(OC)c3c4c(OC)cc(=O)c5c(O)c(OC)c6c(c(c1C(C(C)=O)C6C(C)O)c23)c54` (centres undefined) has a TGI [17] of 1.81 µM, a TGI [4] of 0.267 µM and a TGI [5] of 1 µM. For the same compound, the TGI [18] was 1.88 µM, the TGI [9] was 0.634 µM and the TGI [15] was 0.442 µM. For the same compound, the TGI [10] was 0.71 µM and the TGI [11] was 0.413 µM.
`COc1ccc(C2SC(C)C(=O)N2c2nc(-c3nc(-c4ccc(Cl)cc4)cs3)cs2)cc1` (centres undefined) showed a TGI [17] of over 100 µM, a TGI [4] of over 100 µM and a TGI [5] of over 100 µM. For the same compound, the TGI [18] was over 100 µM, the TGI [9] was over 100 µM and the TGI [15] was over 100 µM. It also gave a TGI [10] of over 100 µM and a TGI [11] of over 100 µM.
`Cc1ccc(S(=O)(=O)Oc2nc3ccccc3nc2N(S(=O)(=O)c2ccc(C)cc2)S(=O)(=O)c2ccc(C)cc2)cc1` gave a TGI [17] of over 100 µM, a TGI [4] of over 100 µM and a TGI [5] of over 100 µM. For the same compound, the TGI [18] was over 100 µM, the TGI [9] was over 100 µM and the TGI [15] was over 100 µM. The TGI [10] was over 100 µM and the TGI [11] was over 100 µM.
`CC(=O)OC1CC[C@]2(C)C3CC[C@@]4(C)C(CCC4[C@H](C)CCCC(C)C)[C@@H]3CCC2(Br)C1` (some centres undefined) was tested, and the TGI [17] was 30.4 µM, the TGI [4] was over 50 µM and the TGI [5] was 29.7 µM. For the same compound, the TGI [18] was 38 µM, the TGI [9] was 29.1 µM and the TGI [15] was 42.5 µM. The TGI [10] was 26.5 µM and the TGI [11] was over 50 µM.
`S=c1sc2nc(Cl)nc(Cl)c2s1` was tested, and the TGI [17] was 60.4 µM, the TGI [4] was 23.5 µM and the TGI [5] was 27.7 µM. For the same compound, the TGI [18] was 24.7 µM, the TGI [9] was 25.2 µM and the TGI [15] was 25.2 µM. The TGI [10] was 29.8 µM and the TGI [11] was 34.8 µM.
Work on `COc1cc2cc(C(=O)N3CC(CCl)c4ccccc43)[nH]c2c(OC)c1OC` (centres undefined) yielded a TGI [17] of over 100 µM, a TGI [4] of over 57.9 µM and a TGI [5] of over 100 µM. It also gave a TGI [18] of over 100 µM, a TGI [9] of over 100 µM and a TGI [15] of over 100 µM. It also gave a TGI [10] of over 100 µM and a TGI [11] of over 100 µM.
Work on `Cc1cn(C2CC(N)C(C(=O)O)O2)c(=O)[nH]c1=O` (centres undefined) yielded a TGI [17] of over 100 µM, a TGI [4] of over 100 µM and a TGI [5] of over 100 µM. The TGI [18] was over 100 µM, the TGI [9] was over 100 µM and the TGI [15] was over 100 µM. For the same compound, the TGI [10] was over 100 µM and the TGI [11] was over 100 µM.
Work on `C=C1C(=O)O[C@H]2[C@H]1CC(=O)/C(C)=C/CC[C@@]1(C)O[C@@H]21` yielded a TGI [17] of 8.62 µM, a TGI [4] of 4.53 µM and a TGI [5] of 6.27 µM. For the same compound, the TGI [18] was 3.5 µM, the TGI [9] was 0.729 µM and the TGI [15] was 0.6 µM. It also gave a TGI [10] of 7.47 µM and a TGI [11] of 13.8 µM.
With `O=C(c1ccccc1)c1sc2c(=O)c(C(=O)c3ccccc3)c(C(=O)c3ccccc3)sc2c(=O)c1C(=O)c1ccccc1` the TGI [17] was over 100 µM, the TGI [4] was over 100 µM and the TGI [5] was 69.2 µM. For the same compound, the TGI [18] was over 100 µM, the TGI [9] was 38.6 µM and the TGI [15] was over 100 µM. The TGI [10] was over 100 µM and the TGI [11] was over 100 µM.
Work on `COc1ccc(/C(=N/NC(N)=O)C(c2ccc(OC)cc2)C2C(=O)Oc3ccccc32)cc1` (centres undefined) yielded a TGI [1] of over 100 µM, a TGI [2] of over 100 µM and a TGI [3] of over 100 µM. It also gave a TGI [4] of over 100 µM, a TGI [5] of over 100 µM and a TGI [6] of over 100 µM. For the same compound, the TGI [7] was over 100 µM, the TGI [8] was over 100 µM and the TGI [9] was over 100 µM. It also gave a TGI [15] of over 100 µM, a TGI [10] of over 100 µM and a TGI [16] of over 100 µM. The TGI [11] was over 100 µM, the TGI [12] was over 100 µM and the TGI [13] was over 100 µM.
`CC(=O)NNc1nc(C)c(C(/C=C/c2ccc(Cl)cc2)=N/NC(=O)C[N+](C)(C)C)s1` gave a TGI [1] of over 100 µM, a TGI [2] of over 100 µM and a TGI [3] of over 100 µM. The TGI [14] was over 100 µM, the TGI [4] was over 100 µM and the TGI [5] was over 100 µM. For the same compound, the TGI [6] was over 100 µM, the TGI [7] was over 100 µM and the TGI [8] was over 100 µM. The TGI [9] was over 100 µM, the TGI [15] was over 100 µM and the TGI [11] was over 100 µM.
